The values below are quoted from earlier work in US20050159439A1, “Management of postoperative pain” (priority 2001, published 2005).

The data set relates to subjects operated on for lumbar disc herniation. The note with it: 10 mg epidural morphine, lumbar disc herniation surgery.

As to `CN1CC[C@]23c4c5ccc(O)c4O[C@H]2[C@@H](O)C=C[C@H]3[C@H]1C5` [morphine], the Pain relief entry is recorded as “significant pain relief” and the Side effect result is recorded as “urinary retention was the relevant side effect”.
